Laboratory results taken from US20220062448A1 (priority 2015, published 2022).

Test system: CD206+macrophages (MOs)
Assay: CD206 targeting assay in monocyte-derived CD206+ macrophages (uptake, killing, apoptosis)
Assay type: cell-based
Conditions: FIG. 17
Procedure: CD206 targeting assays were conducted using both in vitro monocyte-derived CD206+macrophages (MOs) and ex vivo fresh Kaposi Sarcoma (KS) tumor tissue (provided by the AIDS and Cancer Specimen Resource [ACSR]). Tilmanocept-Cy 3 with/without a chemo-therapeutic agent (CTA) attached (tilmanocept-Cy3-CTA or tilmanocept-Cy3) interactions with cellular and tumor targets were tracked by flow cytometry and immuno-histochemistry to evaluate Cy3-tilmanocept uptake and targeting capability for delivery of drug into KS tumor cells and TAMs.

COc1cccc2c1C(=O)c1c(O)c3c(c(O)c1C2=O)C[C@@](O)(C(=O)CO)C[C@@H]3O[C@H]1C[C@H](N)[C@H](O)[C@H](C)O1 [Docorubicin, doxorubicin]
toxicity to CD206 expressing macrophages (Annexin levels): no toxicity | effect on cells (apoptosis, cell loss) (compared with tilmanocept-Cy3-CTA): less effect
